The text below walks through data of ChEMBL document CHEMBL1133248, “Synthesis and biological activity of phenoxyphenyl oxamic acid derivatives related to L-thyronine” (Bioorg Med Chem Lett, 2000).

Molecules are shown by their SMILES.

By IC50 is commonly meant the concentration at which inhibition is half-maximal.

Assay [1] can be described thus: Inhibition of [125I]L-T3 binding to rat hepatic 3,5,3''-triiodo-L-thyronine receptor.
The test system of assay [2] is Rattus norvegicus. Put plainly: Heart weight was determined after administration to rats at 25 mg/kg perorally for 7 days (in vivo on cardiovascular activity).
Assay [3] relates to Rattus norvegicus. Put plainly: Heart rate was determined after administration to rats at 25 mg/kg perorally for 7 days (in vivo on cardiovascular activity).
The subject of assay [4] is Rattus norvegicus. Put plainly: Atrial tension was determined after administration to rats at 25 mg/kg for 7 days at 20 pulse/min.
The test system of assay [5] is Rattus norvegicus. Put plainly: Atrial tension was determined after administration to rats at 25 mg/kg for 7 days at 40 pulse/min.
Assay [6] deals with Rattus norvegicus. Put plainly: Atrial tension was determined after administration to rats at 100 ug/Kg for 7 days at 40 pulse/min. Type of assay: functional, Cardiac atrium.
Assay [7] relates to Rattus norvegicus. Put plainly: Heart rate was determined after administration to rats at 100 ug/Kg perorally for 7 days (in vivo on cardiovascular activity). It counts as functional.
The subject of assay [8] is Rattus norvegicus. Put plainly: Heart weight was determined after administration to rats at 100 ug/Kg perorally for 7 days (in vivo on cardiovascular activity). It counts as functional.
Assay [9] deals with Rattus norvegicus. Put plainly: Atrial tension was determined after administration to rats at 100 ug/Kg for 7 days at 20 pulse/min. Type of assay: functional, Cardiac atrium.

In turn, `Cc1cc(NC(=O)C(=O)O)cc(C)c1Oc1cccc(-c2ccccc2)c1` came in with an IC50 in assay [1] of 32 nM. Still for that read-out and setting: as for `Cc1cc(NC(=O)C(=O)O)cc(C)c1Oc1ccc(O)c(-c2cccc(Cl)c2)c1`, the figure is 0.64 nM. Still for that read-out and setting: as for `Cc1cc(NC(=O)C(=O)O)cc(C)c1Oc1ccc(O)c(-c2ccccc2Cl)c1`, the figure is 0.17 nM; as for `CCc1cc(Oc2c(C)cc(NC(=O)C(=O)O)cc2C)ccc1O`, 0.25 nM. In turn, `Cc1cc(NC(=O)C(=O)O)cc(C)c1Oc1ccc(O)c(C2CCCCC2)c1` registered a Heart weight in the assay on Rattus norvegicus [2] of 4.4. Besides, the Heart rate in the assay on Rattus norvegicus [3] is recorded as 6.3. In [1], this molecule showed an IC50 of 2.2 nM. The Developed tension in the assay on Rattus norvegicus [4] was 7.6%; in the assay with Rattus norvegicus [5], 12.6%. `Cc1cc(NC(=O)C(=O)O)cc(C)c1Oc1ccc(O)c(-c2ccccc2)c1` gave an IC50 in [1] of 1.9 nM. Also, the Developed tension with Rattus norvegicus [4] is 3.7%. `Cc1cc(Oc2c(C)cc(NC(=O)C(=O)O)cc2C)ccc1O` registered an IC50 in assay [1] of 5.4 nM. The molecule `Cc1cc(NC(=O)C(=O)O)cc(C)c1S(=O)(=O)c1ccc(O)c(C2CCCCC2)c1` registered a half-inhibitory concentration (IC50) in [1] of 1.9 nM. Take `Cc1cc(NC(=O)C(=O)O)cc(C)c1Sc1ccc(O)c(C2CCCCC2)c1`: in assay [1], the IC50 came out at 2 nM. Same read-out and setting: as for `Cc1cc(NC(=O)C(=O)O)cc(C)c1Oc1ccc(O)c(-c2cccc(C(F)(F)F)c2)c1`, the figure is 0.92 nM. Regarding `Cc1cc(NC(=O)C(=O)O)cc(C)c1Oc1ccc(O)c(-c2ccc(C(F)(F)F)cc2)c1`, the IC50 in assay [1] came out at 14 nM. Take `Cc1cc(NC(=O)C(=O)O)cc(C)c1Oc1ccc(O)c(-c2cccc(F)c2)c1`: the IC50 in assay [1] stood at 1.9 nM.

Take `Cc1ccc(-c2cc(Oc3c(C)cc(NC(=O)C(=O)O)cc3C)ccc2O)cc1`: the IC50 in assay [1] was 9 nM. `N[C@@H](Cc1cc(I)c(Oc2ccc(O)c(I)c2)c(I)c1)C(=O)O` [LIOTHYRONINE]: the figures for the Developed tension in the assay with Rattus norvegicus [6] and in the assay on Rattus norvegicus [9] were 12.7% and 18.2%, respectively. Further, the Heart rate in the assay with Rattus norvegicus [7] was determined as 52.5. Besides, the Heart weight with Rattus norvegicus [8] came out at 38.9.
